Target: T1, KRAS (G12D)-HiBit in AsPc-1-KRAS (G12D)-HiBit-KI cell (Homo sapiens, UniProt P01116, G12D)
T1 construct: host or cells: AsPc-1-KRAS (G12D)-HiBit-KI cells (knock-in line)
Assay: G12D HiBit assay
Assay type: cell-based
Conditions: 24 hours compound treatment, absolute DC50, read-out: Average PHA DC50
Summary of the method: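 Degradation of endogenous HiBiT-tagged KRAS G12D in AsPc-1 knock-in cells read after 24 h compound exposure (0.015-300 nM, 3-fold steps) by Nano-Glo HiBiT lytic luminescence. Signal normalised to DMSO-only cells; absolute DC50 derived by curve fitting.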

T1 sequence (P01116 1-188 isoform P01116-2 G12D): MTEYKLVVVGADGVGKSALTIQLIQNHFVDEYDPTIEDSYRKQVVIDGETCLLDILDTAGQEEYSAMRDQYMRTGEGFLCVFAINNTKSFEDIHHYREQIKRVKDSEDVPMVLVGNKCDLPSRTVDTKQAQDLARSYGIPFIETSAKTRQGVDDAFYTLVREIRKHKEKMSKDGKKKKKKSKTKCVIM

| Structure (SMILES) | DC50 [nM] |
| --- | --- |
| C#Cc1c(F)ccc2cccc(-c3ncc4c(N5CC6CCC(C5)N6)nc(OC[C@@]56CCCN5[C@H](COC(=O)NC[C@@H]5CN(CCCc7cccc8c7n(C)c(=O)n8C7CCC(=O)NC7=O)CCO5)CC6)nc4c3F)c12 (stereo partly drawn) [Compound 126, [(3S,8S)-8-[[4-(3,8-Diazabicyclo[3.2.1]octan-3-yl)-7-(8-ethynyl-7-fluoro-1-naphthyl)-8-fluoro-pyrido[4,3-d]pyrimidin-2-yl]oxymethyl]-1,2,3,5,6,7-hexahydropyrrolizin-3-yl]methyl N-[[(2 R)-4-[3-[1-(2,6-dioxo-3-piperidyl)-3-methyl-2-oxo-benzimidazol-4-yl]propyl]morpholin-2-yl]methyl]carbamate] | ≥ 300 |
| C#Cc1c(F)ccc2cccc(-c3ncc4c(N5CC6CCC(C5)N6)nc(OC[C@@]56CCCN5[C@H](COC(=O)N5CCC(C7CCN(c8cccc9c8n(C)c(=O)n9C8CCC(=O)NC8=O)CC7)CC5)CC6)nc4c3F)c12 (stereo partly drawn) [Compound 127, [(3S,8S)-8-[[4-(3,8-Diazabicyclo[3.2.1]octan-3-yl)-7-(8-ethynyl-7-fluoro-1-naphthyl)-8-fluoro-pyrido[4,3-d]pyrimidin-2-yl]oxymethyl]-1,2,3,5,6,7-hexahydropyrrolizin-3-yl]methyl 4-[1-[1-(2,6-dioxo-3-piperidyl)-3-methyl-2-oxo-benzimidazol-4-yl]-4-piperidyl]piperidine-1-carboxylate] | ≥ 300 |
| C#Cc1c(F)ccc2cccc(-c3ncc4c(N5CC6CCC(C5)N6)nc(OC[C@@]56CCCN5[C@H](COC(=O)N5CCC(COC7CCN(Cc8cccc9c8n(C)c(=O)n9C8CCC(=O)NC8=O)CC7)CC5)CC6)nc4c3F)c12 (stereo partly drawn) [Compound 128, [(3S,8S)-8-[[4-(3,8-diazabicyclo[3.2.1]octan-3-yl)-7-(8-ethynyl-7-fluoro-1-naphthyl)-8-fluoro-pyrido[4,3-d]pyrimidin-2-yl]oxymethyl]-1,2,3,5,6,7-hexahydropyrrolizin-3-yl]methyl4-[[1-[[1-(2,6-dioxo-3-piperidyl)-3-methyl-2-oxo-benzimidazol-4-yl]methyl]-4-piperidyl]oxymethyl]piperidine-1-carboxylate] | < 100 |
| C#Cc1c(F)ccc2cccc(-c3ncc4c(N5CC6CCC(C5)N6)nc(OC[C@@]56CCCN5[C@H](COC(=O)N5CCC7(CC5)CCN(c5cccc8c5n(C)c(=O)n8C5CCC(=O)NC5=O)CC7)CC6)nc4c3F)c12 (stereo partly drawn) [Compound 129, [(3S,8S)-8-[[4-(3,8-Diazabicyclo[3.2.1]octan-3-yl)-7-(8-ethynyl-7-fluoro-1-naphthyl)-8-fluoro-pyrido[4,3-d]pyrimidin-2-yl]oxymethyl]-1,2,3,5,6,7-hexahydropyrrolizin-3-yl]methyl9-[1-(2,6-dioxo-3-piperidyl)-3-methyl-2-oxo-benzimidazol-4-yl]-3,9-diazaspiro[5.5]undecane-3-carboxylate] | ≥ 300 |
| C#Cc1c(F)ccc2cccc(-c3ncc4c(N5CC6CCC(C5)N6)nc(OC[C@@]56CCCN5[C@H](COC(=O)N5CCC(OC7CCN(Cc8cccc9c8n(C)c(=O)n9C8CCC(=O)NC8=O)CC7)CC5)CC6)nc4c3F)c12 (stereo partly drawn) [Compound 130, [(3S,8S)-8-[[4-(3,8-Diazabicyclo[3.2.1]octan-3-yl)-7-(8-ethynyl-7-fluoro-1-naphthyl)-8-fluoro-pyrido[4,3-d]pyrimidin-2-yl]oxymethyl]-1,2,3,5,6,7-hexahydropyrrolizin-3-yl]methyl4-[[1-[[1-(2,6-dioxo-3-piperidyl)-3-methyl-2-oxo-benzimidazol-4-yl]methyl]-4-piperidyl]oxy]piperidine-1-carboxylate] | < 100 |
| C#Cc1c(F)ccc2cccc(-c3ncc4c(N5CC6CCC(C5)N6)nc(OC[C@@]56CCCN5[C@H](COC(=O)N5CCC(N7CCN(c8cccc9c8n(C)c(=O)n9C8CCC(=O)NC8=O)CC7)CC5)CC6)nc4c3F)c12 (stereo partly drawn) [Compound 131, [(3S,8S)-8-[[4-(3,8-Diazabicyclo[3.2.1]octan-3-yl)-7-(8-ethynyl-7-fluoro-1-naphthyl)-8-fluoro-pyrido[4,3-d]pyrimidin-2-yl]oxymethyl]-1,2,3,5,6,7-hexahydropyrrolizin-3-yl]methyl4-[4-[1-(2,6-dioxo-3-piperidyl)-3-methyl-2-oxo-benzimidazol-4-yl]piperazin-1-yl]piperidine-1-carboxylate] | ≥ 300 |
| C#Cc1c(F)ccc2cccc(-c3ncc4c(N5C[C@H]6CC[C@@H](C5)N6)nc(OC[C@@]56CCCN5[C@H](COC(=O)N5CCC(CC7CCN(Cc8cccc9c8n(C)c(=O)n9C8CCC(=O)NC8=O)CC7)CC5)CC6)nc4c3F)c12 (stereo partly drawn) [Compound 132, ((3S,7aS)-7a-(((4-((1R,5S)-3,8-Diazabicyclo[3.2.1]octan-3-yl)-7-(8-ethynyl-7-fluoronaphthalen-1-yl)-8-fluoropyrido[4,3-d]pyrimidin-2-yl)oxy)methyl)hexahydro-1H-pyrrolizin-3-yl)methyl4-((1-((1-(2,6-dioxopiperidin-3-yl)-3-methyl-2-oxo-2,3-dihydro-1H-benzo[d]imidazol-4-yl)methyl)piperidin-4-yl)methyl)piperidine-1-carboxylate] | < 100 |
| C#Cc1c(F)ccc2cccc(-c3ncc4c(N5CC6CCC(C5)N6)nc(OC[C@@]56CCCN5[C@H](COC(=O)N5CCC(OCCc7ccc8c(c7)n(C)c(=O)n8C7CCC(=O)NC7=O)CC5)CC6)nc4c3F)c12 (stereo partly drawn) [Compound 133, [(3S,8S)-8-[[4-(3,8-Diazabicyclo[3.2.1]octan-3-yl)-7-(8-ethynyl-7-fluoro-1-naphthyl)-8-fluoro-pyrido[4,3-d]pyrimidin-2-yl]oxymethyl]-1,2,3,5,6,7-hexahydropyrrolizin-3-yl]methyl 4-[2-[1-(2,6-dioxo-3-piperidyl)-3-methyl-2-oxo-benzimidazol-5-yl]ethoxy]piperidine-1-carboxylate] | ≥ 300 |
| C#Cc1c(F)ccc2cccc(-c3ncc4c(N5CC6CCC(C5)N6)nc(OC[C@@]56CCCN5[C@H](COC(=O)N(C)CCC5CCN(Cc7cccc8c7n(C)c(=O)n8C7CCC(=O)NC7=O)CC5)CC6)nc4c3F)c12 (stereo partly drawn) [Compound 134, [(3S,8S)-8-[[4-(3,8-diazabicyclo[3.2.1]octan-3-yl)-7-(8-ethynyl-7-fluoro-1-naphthyl)-8-fluoro-pyrido[4,3-d]pyrimidin-2-yl]oxymethyl]-1,2,3,5,6,7-hexahydropyrrolizin-3-yl]methyl N-[2-[1-[[1-(2,6-dioxo-3-piperidyl)-3-methyl-2-oxo-benzimidazol-4-yl]methyl]-4-piperidyl]ethyl]-N-methyl-carbamate] | < 100 |
| C#Cc1c(F)ccc2cccc(-c3ncc4c(N5CC6CCC(C5)N6)nc(OC[C@@]56CCCN5[C@H](COC(=O)N5CCC(OCCc7cccc8c7n(C)c(=O)n8C7CCC(=O)NC7=O)CC5)CC6)nc4c3F)c12 (stereo partly drawn) [Compound 135, [(3S,8S)-8-[[4-(3,8-Diazabicyclo[3.2.1]octan-3-yl)-7-(8-ethynyl-7-fluoro-1-naphthyl)-8-fluoro-pyrido[4,3-d]pyrimidin-2-yl]oxymethyl]-1,2,3,5,6,7-hexahydropyrrolizin-3-yl]methyl 4-[2-[1-(2,6-dioxo-3-piperidyl)-3-methyl-2-oxo-benzimidazol-4-yl]ethoxy]piperidine-1-carboxylate] | < 100 |
| C#Cc1c(F)ccc2cccc(-c3ncc4c(N5CC6CCC(C5)N6)nc(OC[C@@]56CCCN5[C@H](COC(=O)N5CCC(OCCCc7ccc8c(c7)n(C)c(=O)n8C7CCC(=O)NC7=O)CC5)CC6)nc4c3F)c12 (stereo partly drawn) [Compound 136, [(3S,8S)-8-[[4-(3,8-Diazabicyclo[3.2.1]octan-3-yl)-7-(8-ethynyl-7-fluoro-1-naphthyl)-8-fluoro-pyrido[4,3-d]pyrimidin-2-yl]oxymethyl]-1,2,3,5,6,7-hexahydropyrrolizin-3-yl]methyl 4-[3-[1-(2,6-dioxo-3-piperidyl)-3-methyl-2-oxo-benzimidazol-5-yl]propoxy]piperidine-1-carboxylate] | < 100 |
| C#Cc1c(F)ccc2cccc(-c3ncc4c(N5CC6CCC(C5)N6)nc(OC[C@@]56CCCN5[C@H](COC(=O)N5CCC(OCCCc7cccc8c7n(C)c(=O)n8C7CCC(=O)N(C)C7=O)CC5)CC6)nc4c3F)c12 (stereo partly drawn) [Compound 144, [(3S,8S)-8-[[4-(3,8-Diazabicyclo[3.2.1]octan-3-yl)-7-(8-ethynyl-7-fluoro-1-naphthyl)-8-fluoro-pyrido[4,3-d]pyrimidin-2-yl]oxymethyl]-1,2,3,5,6,7-hexahydropyrrolizin-3-yl]methyl 4-[3-[3-methyl-1-(1-methyl-2,6-dioxo-3-piperidyl)-2-oxo-benzimidazol-4-yl]propoxy]piperidine-1-carboxylate] | ≥ 300 |
| C#Cc1c(F)ccc2cccc(-c3ncc4c(N5CC6CCC(C5)N6)nc(OC[C@@]56CCCN5[C@H](COC(=O)N5CCC(CNC7CCN(Cc8cccc9c8n(C)c(=O)n9C8CCC(=O)NC8=O)CC7)CC5)CC6)nc4c3F)c12 (stereo partly drawn) [Compound 145, [(3S,8S)-8-[[4-(3,8-Diazabicyclo[3.2.1]octan-3-yl)-7-(8-ethynyl-7-fluoro-1-naphthyl)-8-fluoro-pyrido[4,3-d]pyrimidin-2-yl]oxymethyl]-1,2,3,5,6,7-hexahydropyrrolizin-3-yl]methyl 4-[[[1-[[1-(2,6-dioxo-3-piperidyl)-3-methyl-2-oxo-benzimidazol-4-yl]methyl]-4-piperidyl]amino]methyl]piperidine-1-carboxylate] | < 100 |
| C#Cc1c(F)ccc2cccc(-c3ncc4c(N5CC6CCC(C5)N6)nc(OC[C@@]56CCCN5[C@H](COC(=O)NCCCC(=O)N5CCN(c7ccc(N8CCC(=O)NC8=O)cc7)CC5)CC6)nc4c3F)c12 [Compound 146, [(3S,8S)-8-[[4-(3,8-diazabicyclo[3.2.1]octan-3-yl)-7-(8-ethynyl-7-fluoro-1-naphthyl)-8-fluoro-pyrido[4,3-d]pyrimidin-2-yl]oxymethyl]-1,2,3,5,6,7-hexahydropyrrolizin-3-yl]methylN-[4-[4-[4-(2,4-dioxohexahydropyrimidin-1-yl)phenyl]piperazin-1-yl]-4-oxo-butyl]carbamate] | ≥ 300 |

From patent publication US12404285B2, “KRAS G12D proteolysis targeting chimeras” (PAQ Therapeutics Inc., priority 2022, dated 2025)
